From patent publication US20240217992A1, “RETINOIC ACID RECEPTOR AGONIST, PREPARATION METHOD THEREFOR, INTERMEDIATE, PHARMACEUTICAL COMPOSITION AND USE” (JIANGXI KERUI PHARMACEUTICAL CO., LTD., priority 2021, published 2024)

Key:
[1] = system: human hepatocytes; test: Hepatocyte stability (metabolic stability in human hepatocytes, LC-MS/MS); settings: for Normalized area (240 minutes), prototype compound peak (molecular weight shift 0.00): human hepatocytes 1.0 × 10^6 cells/mL, 37° C.
Procedure: (§2) The metabolic stability of the compounds was tested using human hepatocytes.
(§3) • 1. The compounds and hepatocytes were incubated for 240 minutes in the following system.
(§4) The culture was inactivated with 2 volumes of acetonitrile (0.1% FA) and then centrifuged for 15 minutes at 16,000 g. • 3. The supernatant was analyzed by LC-MS/MS for prototype compounds and metabolites.

[2] = system: human hepatocytes; settings: 10 µM
Procedure: as §2, §3, §4

[3] = target: T1, RARα (Homo sapiens, UniProt P10276); test: Agonist activity on RARα, dual luciferase reporter gene assay in transfected HEK-293 cells; format: cell-based; settings: 24 h incubation, firefly/Renilla luciferase signal
T1 construct: expressed in transfected cells; host or cells: HEK-293 (ATCC #CRL-1573)
T1 sequence (P10276 1-462): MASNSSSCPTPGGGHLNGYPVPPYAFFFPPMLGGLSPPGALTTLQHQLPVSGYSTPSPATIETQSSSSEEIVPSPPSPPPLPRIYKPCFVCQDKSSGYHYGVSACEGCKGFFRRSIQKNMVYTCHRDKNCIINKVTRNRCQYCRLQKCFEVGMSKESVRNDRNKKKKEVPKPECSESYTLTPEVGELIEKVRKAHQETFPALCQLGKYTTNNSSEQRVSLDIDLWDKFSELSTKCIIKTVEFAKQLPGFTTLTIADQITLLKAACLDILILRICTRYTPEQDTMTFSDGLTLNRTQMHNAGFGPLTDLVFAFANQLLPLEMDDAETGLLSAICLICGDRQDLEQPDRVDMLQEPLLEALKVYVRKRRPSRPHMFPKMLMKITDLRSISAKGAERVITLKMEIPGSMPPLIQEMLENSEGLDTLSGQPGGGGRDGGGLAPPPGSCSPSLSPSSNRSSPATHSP
Procedure: (§1) • 1. Day 1: Cell culture. The culture dish was treated with trypsin, and then cells at an appropriate concentration were inoculated into 10 mL of culture medium. Cell culture conditions: 37° C., 5% CO2, humid environment. • 2. Day 3: Transfection with FuGENE transfection reagent. A transfection mixture was prepared using the method of the supplier's instructions, then the tube was shaken vigorously to mix well, and the transfection mixture was left to incubate for 15 minutes at room temperature. The mixture was treated with trypsin to determine the cell density, and the cell suspension was appropriately diluted to the appropriate volume and density. The appropriate transfection reagent mixture was added thereto, and the cell suspension was added to a 96-well plate at 100 μL per well. The 96-well plate was incubated for 24 hours under the cell culture conditions in step 1. • 3. Day 4: Addition of test compound. The compound was formulated into a DMSO stock solution at a concentration of 210× and diluted to make a solution at a concentration of 21× by the addition of 9 times the amount of solvent. 5 μL of the compound solution at a concentration of 21× was added to each well and incubated for 24 hours under the same conditions as step 1. • 4. Day 5: Plate reading. The Dual Luciferase Reporter Gene Assay System was left at room temperature for 30 minutes prior to use, and […] was added to each well of the 96-well plate to detect the intensity of firefly luciferin in an appropriate manner. Afterwards, Stop&Glo reagent was added to detect the intensity of Renilla luciferin. • 5. Data processing. Signal=intensity of firefly luciferin/intensity of Renilla luciferin, multiple of agonist activation=compound signal/baseline signal (the intensity of the baseline signal was obtained from DMSO solution without the compound). pEC50 values were obtained by processing the data with GraphPad Prism, which were further converted to EC50 values.

[4] = target: T2, RARγ (Homo sapiens, UniProt P13631); test: Agonist activity on RARγ, dual luciferase reporter gene assay in transfected HEK-293 cells; format: cell-based; settings: for EC50: HEK-293 cells, 24 h incubation, firefly/Renilla luciferase signal; for selectivity on RARγ compared with Trifarotene: RARγ versus RARα, from Table 2; for agonist activity on RARγ compared with Trifarotene: comparison of Table 2 EC50 values
T2 construct: expressed in transfected cells; host or cells: HEK-293 (ATCC #CRL-1573)
T2 sequence (P13631 1-454): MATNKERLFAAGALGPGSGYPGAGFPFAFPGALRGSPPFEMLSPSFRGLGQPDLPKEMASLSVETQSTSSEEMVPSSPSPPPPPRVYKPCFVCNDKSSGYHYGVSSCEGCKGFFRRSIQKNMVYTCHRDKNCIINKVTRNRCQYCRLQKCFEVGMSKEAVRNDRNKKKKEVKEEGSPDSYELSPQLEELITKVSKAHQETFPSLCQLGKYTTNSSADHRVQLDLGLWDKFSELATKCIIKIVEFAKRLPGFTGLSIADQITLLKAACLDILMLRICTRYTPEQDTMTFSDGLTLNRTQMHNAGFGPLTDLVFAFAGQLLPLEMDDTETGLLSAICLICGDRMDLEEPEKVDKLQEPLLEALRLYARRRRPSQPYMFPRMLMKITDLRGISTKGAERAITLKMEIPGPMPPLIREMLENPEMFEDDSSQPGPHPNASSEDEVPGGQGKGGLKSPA
Procedure: as §1

Row | SMILES | prototype compound remaining after 240 minutes of incubation in hepatocytes ([1]; human hepatocytes) | Normalized area (240 minutes), prototype compound peak (molecular weight shift 0.00) ([1]; 10 μM) | Normalized area (240 minutes), Peak 4 of compound I-1 (molecular weight shift 0.02) [2] | EC50 [3] | EC50 [4] | selectivity on RARγ compared with Trifarotene [4] | agonist activity on RARγ compared with Trifarotene [4] | Normalized area (240 minutes), Peak 3 of Trifarotene (molecular weight shift 16.00) ([1]; human hepatocytes, 10 μM, metabolite peak m/z 476.24) | Normalized area (240 minutes), Peak 1 of Trifarotene (molecular weight shift 31.99) ([1]; human hepatocytes, 10 μM, metabolite peak m/z 492.24, retention time 4.18 minutes) | Normalized area (240 minutes), Peak 4 of Trifarotene (molecular weight shift 31.99) ([1]; human hepatocytes, 10 μM, metabolite peak m/z 492.24, retention time 7.76 minutes) | Normalized area (240 minutes), Peak 2 of Trifarotene (molecular weight shift 192.03) ([1]; human hepatocytes, 10 μM, metabolite peak m/z 652.27)
1 | C[Si](C)(C)c1cc(-c2cc(-c3ccc(C(=O)O)cc3)ccc2OCCO)ccc1N1CCCC1 [Compound I-1, 4′-(2-hydroxyethoxy)-4′-(pyrrolidin-1-yl)-3′-(trimethylsilyl)-[1,1′:3′,1′-terphenyl]-4-carboxylic Acid] | less than 1% | 0.12% | 68.15% | 64 nM | 0.88 nM | better than that of Trifarotene | equal to or stronger than that of Trifarotene |  |  |  | 
2 | C[Si](C)(C)c1cc(-c2cc(-c3ccc(C(=O)O)cc3)ccc2OCCCO)ccc1N1CCCC1 [Compound I-2, 4′-(3-hydroxypropoxy)-4″-(pyrrolidin-1-yl)-3″-(trimethylsilyl)-[1,1′:3′,1″-terphenyl]-4-carboxylic acid] |  |  |  | 15.5 nM | 0.77 nM | better than that of Trifarotene | equal to or stronger than that of Trifarotene |  |  |  | 
3 | C[Si](C)(C)c1cc(-c2cc(-c3ccc(C(=O)O)cc3)ccc2OCCCCO)ccc1N1CCCC1 [Compound I-3, 4′-(4-hydroxybutoxy)-4″-(pyrrolidin-1-yl)-3″-(trimethylsilyl)-[1,1′:3′,1″-terphenyl]-4-carboxylic acid] |  |  |  | 382 nM | 9.08 nM | better than that of Trifarotene |  |  |  |  | 
4 | C[Si]1(C)CC[Si](C)(C)c2cc(-c3cc(-c4ccc(C(=O)O)cc4)ccc3OCCO)ccc21 [Compound I-5, 4′-(2-hydroxyethoxy)-3′-(1,1,4,4-tetramethyl-1,2,3,4-tetrahydrobenzo[b][1,4]disilan-6-yl)-[1,1′-biphenyl]-4-carboxylic acid] |  |  |  | 18.5 nM | 1.05 nM | better than that of Trifarotene | equal to or stronger than that of Trifarotene |  |  |  | 
5 | CC(C)(C)c1cc(-c2cc(-c3ccc(C(=O)O)cc3)ccc2OCCO)ccc1N1CCCC1 [Trifarotene] | 13.57% | 13.57% |  |  |  |  |  | 54.29% | 9.35% | 9.10% | 9.98%
